A short description of data set [1]: Everolimus whole blood pharmacokinetics. In kind it is in vivo, human. Conditions: for AUC(0-t): AUC0–24h at steady state; for AUC(0-t) / Cmax: everolimus 2.5 mg; for Cmax: geometric mean Cmax at steady state.
The subject of data set [2] is postmenopausal women with HR+, HER2− advanced breast cancer. In words: Safety and tolerability. In kind it is in vivo, human.
For data set [3] the following is noted: ribociclib CYP3A4 inhibitor, everolimus CYP3A4 substrate; cited from earlier work.
Data set [4] relates to postmenopausal women with ER+, HER2− ABC. In words: Dose-limiting toxicities in cycle 1. The class given is in vivo.
Data set [5] is described as follows: Ribociclib plasma pharmacokinetics. The class given is in vivo, human. The note with it: for AUC(0-t): geometric mean AUC0–24h at steady state; for half-life: geometric mean effective half-life based on drug accumulation.
[6] abbreviates: female, human, whole blood, oral, dose-escalation group 1.
[7] abbreviates: female, human, whole blood, oral, dose-escalation group 2.
The mark [8] stands for this setting: dose-escalation group 1 (fasting).
The mark [9] stands for this setting: taken with food, ribociclib 3 weeks on/1 week off in a 4-week cycle.
The mark [10] stands for this setting: female, human, plasma, oral, dose-escalation group 1.
Where [11] appears, read: female, human, plasma, oral, dose-escalation group 2.
The mark [12] stands for this setting: dose-expansion group 1 (CDK4/6i-naïve).
The mark [13] stands for this setting: dose-expansion group 2 (CDK4/6i-refractory).

Usually Tmax stands for the time at which the peak concentration occurs. The AUC(0-t) is exposure summed from dosing to a finite time, without extrapolation to infinity. As a reminder, the Cmax is the highest concentration seen after dosing. Broadly, the half-life is the time needed for the level to fall by half in the phase considered.

On to `CO[C@H]1C[C@@H]2CC[C@@H](C)[C@@](O)(O2)C(=O)C(=O)N2CCCC[C@H]2C(=O)O[C@H]([C@H](C)C[C@@H]2CC[C@@H](OCCO)[C@H](OC)C2)CC(=O)[C@H](C)/C=C(\C)[C@@H](O)[C@@H](OC)C(=O)[C@H](C)C[C@H](C)/C=C/C=C/C=C/1C` [everolimus], for which, in data set [1] (at the RP2D), the “AUC0–24h” value is 303 ng·h/mL. Besides, the “everolimus exposure increase in the presence of ribociclib (dose-dependent DDI)” value in data set [1] (dose-escalation phase) is recorded as “two- to fourfold”. Moreover, the Tmax in data set [1] (female, human, whole blood, oral) lay in the range of 1 to 2 h. The AUC(0-t) in data set [1] (setting [6]) lay within 166 to 307 ng·h/mL; in data set [1] (setting [7]) it was 117 to 316 ng·h/mL. Also, the results for the Cmax in data set [1] (setting [6]) and in data set [1] (setting [7]) were 19.7 to 30.3 ng/mL and 8.25 to 29.4 ng/mL, respectively. The “patients requiring ≥1 dose interruption” value in data set [2] (setting [8]) came out at 70.7%; in data set [2] (dose-escalation group 2 (fed)), 83.3%. For the same compound, the figures for the “patients requiring ≥1 dose reduction” value in data set [2] (setting [8]) and in data set [2] (dose-escalation group 2 (fed)) were 2.4% and 4.8%, respectively. The dose reductions entry in data set [2] (dose-expansion phase) was “no dose reductions”. For the same compound, the “expected increase of everolimus exposure by treatment with ribociclib” value in data set [3] is given as “approximately 3.5 fold”. Further, the “recommended phase II dose (RP2D) in the triplet” value (“recommended phase II dose (RP2D)” for short) in data set [4] (setting [9]) was found to be 2.5 mg once daily.
For the compound `C=C1C[C@@H]2[C@H](CC[C@]3(C)C(=O)CC[C@@H]23)[C@@]2(C)C=CC(=O)C=C12` [exemestane], the “patients requiring ≥1 dose interruption” value worked out at 61% in data set [2] (setting [8]) and 71.4% in data set [2] (dose-escalation group 2 (fed)). In addition, the “recommended phase II dose (RP2D)” value in data set [4] (female, human, in vivo, 28 days) was determined as 25 mg once daily.
With `CN(C)C(=O)c1cc2cnc(Nc3ccc(N4CCNCC4)cn3)nc2n1C1CCCC1` [ribociclib], in data set [5] (female, human, plasma, oral), the Tmax lay within 1 to 4 h. Also, the Cmax in data set [5] (female, human, plasma, oral, Cmax at steady state, at the RP2D) is 773 ng/mL; in data set [5] (female, human, plasma, oral, geometric mean Cmax at steady state, dose-escalation group 1, 200–350 mg dose), 413 to 1000 ng/mL; in data set [5] (female, human, plasma, oral, geometric mean Cmax at steady state, dose-escalation group 2), 289 to 955 ng/mL. Further, the AUC(0-t) in data set [5] (setting [10]) was in the range of 4570 to 11100 ng·h/mL; in data set [5] (setting [11]), 3970 to 13400 ng·h/mL. The half-life fell in the range of 24.9 to 47.6 h in data set [5] (setting [10]) and 29.5 to 49.9 h in data set [5] (setting [11]). The “mean steady-state exposure in the presence of food” value in data set [5] (same dose level, fed versus fasted) is on record as “slightly lower”. In addition, the “DDI in the presence of everolimus and exemestane” value in data set [5] (triplet combination, versus single-agent ribociclib exposure) is “No DDIs were observed”. The “patients requiring ≥1 dose interruption” value was 68.3% in data set [2] (setting [8]), 80.9% in data set [2] (dose-escalation group 2 (fed)), 87.5% in data set [2] (setting [12]) and 82.4% in data set [2] (setting [13]). The “patients requiring ≥1 dose reduction” value in data set [2] (setting [8]) was found to be 22.0%; in data set [2] (dose-escalation group 2 (fed)), 33.3%; in data set [2] (setting [12]) it was 43.8%; in data set [2] (setting [13]), 23.5%. Also, the “recommended phase II dose (RP2D)” value in data set [4] (setting [9]) is 300 mg once daily.

The values above are taken from PMC8489181 (Clinical cancer research : an official journal of the …, 2020).
